The test system of experiment [1] is HUVECs. Put plainly: HUVEC growth inhibition assay (crystal violet). The format is cell-based. The following applies: Homo sapiens; for activity at 30 µM: 72 hours; for inhibition at 30 µM: read-out: Inhibition of HUVECs growth compared with the control. The protocol:
These compounds were tested in a growth inhibition assay using HUVECs as follows. 5×10^3 Human umbilical vein endothelial cells (HUVECs) were seeded in two 96-well plates (Clonetic # CC3162). Each well contains 100 μl of endothelial cell basal medium-2. After 24 hr, 100 μl endothelial cell growth medium-2 containing a test compound was added to each well of the two plates. The cells in the first plate were immediately stained with 0.5% crystal violet in 20% methanol for 10 minutes, rinsed with water, and air-dried. The cells in the second plate were incubated for 72 hours at 37° C. and then stained in the same manner. Each well in the first and second plates was eluted with 1:1 ethanol and 0.1 M sodium citrate, and absorbance of the resulting solution was measured at 540 nm with an ELISA reader.
Basal and control experiments were also conducted according to the above procedure, except that 100 μl endothelial basal medium-2 and 100 μl endothelial growth medium-2 were added to the second plates, respectively, instead of endothelial cell growth medium-2 containing a test compound.
HUVECs growth in each well was compared with that of the basal experiment according to the following equation: % basal=(Asecond plate−Afirst plate)/(Asecond plate of basal−Afirst plate of basal)×100%
where Asecond plate is the absorbance of the solution in the second plate; Afirst plate is the absorbance of the solution in the first plate; Asecond plate of basal is the absorbance of the solution in the second plate of the basal; and Afirst plate of basal is the absorbance of the solution in the first plate of the basal.

The test system of experiment [2] is bFGF-induced tube formation of HUVECs. In words: Inhibition of bFGF-induced tube formation of HUVECs on Matrigel. The format is cell-based, Human. Particulars: 10 TM compound, bFGF 10 ng/mL, Matrigel 10 mg/mL. How it is done:
(§1) HUVECs were cultured onto a chamber slide, which was pre-coated with Matrigel (10 mg/mL). Cells were treated without Compound 1 (control) or with Compound 1 (10 TM). VEGF (10 ng/mL) or bFGF (10 ng/mL) was added to induce tube formation. All photos were taken at 100× magnification.

The test system of experiment [3] is bFGF-induced cell proliferation of HUVECs. In words: Inhibition of bFGF-induced DNA synthesis ([3H]thymidine incorporation) in HUVECs. In kind it is cell-based. Particulars: Homo sapiens, HUVEC. The protocol:
(§2) Human umbilical vein endothelial cells (HUVECs) were incubated in the absence of Compound 1 (basal and control) or presence of Compound 1 (with a concentration of […], 0.03 TM, 0.1 TM, 0.3 TM, or 1 TM). Vascular endothelial growth factor (VEGF) or basic fibroblast growth factor (bFGF) was added (except for basal) to induce DNA synthesis, which was detected based on [^3H]thymidine incorporation.
Background: Incorporation of labelled thymidine or its analogues reports DNA synthesis.

The subject of experiment [4] is VEGF-induced cell proliferation of HUVECs. Put plainly: Inhibition of VEGF-induced DNA synthesis ([3H]thymidine incorporation) in HUVECs. In kind it is cell-based. The following applies: Homo sapiens, HUVEC. How it is done:
as §2

Experiment [5] deals with VEGF-induced angiogenic effect. Put plainly: Matrigel plug angiogenesis in nude mice, VEGF. In kind it is in vivo. The protocol: (§3) Nude mice were subcutaneously injected with a Matrigel plug containing 150 ng/mL VEGF or bFGF. Vehicle or Compound 1 was administrated to the mice orally (1 mg/kg/day, 3 mg/kg/day, 10 mg/kg/day, 30 mg/kg/day, or 100 mg/kg/day) for seven days. The angiogenic response was monitored visually through the transparent skin. […] The plugs were removed, fixed in 4% formaldehyde, embedded in paraffin, sectioned at 5-Tm thick for histological analysis, and blood vessel growth quantified by hematoxylin-eosin staining. All photos were taken at 40× magnification.
(§4) In a quantitative analysis of angiogenic effect, nude mice were treated as described above, and the plugs were removed and dissolved. Hemoglobin concentrations were measured using a hemoglobin detection kit (Sigma Chem. Co.) as indices of angiogenesis. Means±S.E. (n=3) were presented (see FIG. 1). Symbol “***” represents P<0.001 that are compared with the control.

In experiment [6] the test system is bFGF-induced angiogenic effect. Put plainly: Matrigel plug angiogenesis in nude mice, bFGF. The format is in vivo. The protocol:
as §3, §4

Experiment [7] deals with VEGF-induced tube formation of HUVECs. In words: Inhibition of VEGF-induced tube formation of HUVECs on Matrigel. Particulars: 10 TM compound, VEGF 10 ng/mL, Matrigel 10 mg/mL. In kind it is cell-based, Human. How it is done:
as §1

Experiment [8] has as its system A549 lung tumor cells. In words: Anti-tumor activity, survival of nude mice with A549 lung tumor cells in the pleural space. The following applies: oral 10 mg/kg/day, 10^6 A549 cells in pleural space, FIG. 2. In kind it is in vivo. The protocol: 10^6 A549 lung tumor cells were introduced into the pleural space of nude mice. Compound 1 was administrated to the mice orally (10 mg/kg/day). The survival rates of Compound 1-treated mice and control mice were compared (FIG. 2). The life span (i.e., the medium survival time) of Compound 1-treated mice was about 1.8 times that of control mice, as analyzed by a % T/C value [(median survival time of treatment/median survival time of control)×100].

The mark [9] stands for this setting: read-out: HUVEC growth, % of Basal.
The mark [10] stands for this setting: read-out: HUVEC growth, % of Control.

This is an account of results in patent publication US20070142449A1, “Angiogenesis inhibitors” (priority 2002, published 2007).

Read-outs that look alike come from different tables or passages of the source.

One may read the inhibition as the drop in the measured response relative to a control, in per cent. In the case of `OCc1ccc(-c2nn(Cc3ccccc3)c3cc(F)ccc23)o1` [Compound 6], the activity at 30 µM in experiment [1] (setting [9]) turned out to be 83.9 ± 4%; in experiment [1] (setting [10]), 37 ± 1.8%. Besides, the inhibition at 30 µM in experiment [1] fell in the range of 60 to 76%.
By IC50 is commonly meant the midpoint of a concentration-inhibition curve. Regarding `OCc1ccc(-c2nn(Cc3ccccc3)c3ccccc23)o1` [Compound 1, 1-benzyl-3-(5′-hydroxymethyl-2′-furyl)indazole], the “Inhibition of bFGF-induced formation of networks of elongated endothelial cells” value in experiment [2] is listed as “inhibited”. Moreover, the activity at 30 µM in experiment [1] (setting [9]) is 92.2 ± 1.8%; in experiment [1] (setting [10]), 40.6 ± 0.8%. In addition, the inhibition at 30 µM in experiment [1] was 60 to 76%. The IC50 in experiment [3] was 140 nM; in experiment [4], 90 nM. In addition, the “VEGF-induced angiogenic effect, blood vessel growth in Matrigel plug (histology)” value in experiment [5] (oral 1-100 mg/kg/day for seven days, plug with 150 ng/mL VEGF) was “effectively inhibited”. Further, in experiment [5] (oral, seven days, n=3, FIG. 1), the “VEGF-induced angiogenic effect, hemoglobin concentration of plug” value is given as “effectively inhibited”. In addition, the “bFGF-induced angiogenic effect, blood vessel growth in Matrigel plug (histology)” value in experiment [6] (oral 1-100 mg/kg/day for seven days, plug with 150 ng/mL bFGF) is “effectively inhibited”. Moreover, the “bFGF-induced angiogenic effect, hemoglobin concentration of plug” value in experiment [6] (oral, seven days, n=3, FIG. 1) is listed as “effectively inhibited”. For the same molecule, in experiment [7], the “Inhibition of VEGF-induced formation of networks of elongated endothelial cells” value was “inhibited”. Besides, the “Life span (medium survival time) relative to control mice” value in experiment [8] was “about 1.8 times that of control mice”.
As for `COC(=O)c1ccc(-c2nn(Cc3ccccc3)c3cc(F)ccc23)o1` [Compound 4], the values for the activity at 30 µM in experiment [1] (setting [9]) and in experiment [1] (setting [10]) were 195 ± 6.5% and 85.9 ± 2.8%, respectively. Besides, the inhibition at 30 µM in experiment [1] was 15%.
Taken in the same sequence, the figures for `OCc1ccc(-c2n[nH]c3ccccc23)o1` [Compound 3] were 178 ± 14.7%, 78.4 ± 6.5% and 22 to 40%.
On the same counts, the results for `COC(=O)c1ccc(-c2n[nH]c3ccccc23)o1` [Compound 2] are 193 ± 11.1%, 85 ± 4.9% and 15%.
Taken in the same sequence, the figures for `Cc1ccc2c(-c3ccc(CO)o3)nn(Cc3ccccc3)c2c1` [Compound 7] were 53.9 ± 7.5%, 23.7 ± 3.3% and 60 to 76%.
Consider `Cc1ccc2c(-c3ccc(C(=O)O)o3)nn(Cc3ccccc3)c2c1` [Compound 8], for which the values for the activity at 30 µM in experiment [1] (setting [9]) and in experiment [1] (setting [10]) were 163 ± 22.1% and 71.4 ± 9.7%, respectively. Further, in experiment [1], the inhibition at 30 µM was 22 to 40%.
As for `O=C(O)c1cccc(-c2nn(Cc3ccccc3)c3ccccc23)c1` [Compound 9], the activity at 30 µM was determined as 172 ± 14.4% in experiment [1] (setting [9]) and 75.8 ± 6.3% in experiment [1] (setting [10]). For the same molecule, the inhibition at 30 µM in experiment [1] fell in the range of 22 to 40%.
